According to patent US12472185B2, “Methods for killing antibiotic tolerant bacteria” (THE PENN STATE RESEARCH FOUNDATION, priority 2020, dated 2025):
≈ marks a conversion by molar mass, not a printed value. Where “and” joins values, the source holds several entries; their conditions need not be identical. Identical values can stand only once.

Columns and labels:
E. coli persister cells [1] = test: ChemBridge screen for persister cell killing; format: cell-based, Escherichia coli; details: 100 μM, 24 hr
Method: FIG. 1. […] Escherichia coli persister cells were treated for 24 hr at 100 μM with: • 1: N-(3,4-dichlorophenyl)-N′-(3-fluorophenyl) thiourea; • 2: 2-({2-[(4-bromophenyl)amino]-4-quinazolinyl}amino)ethanol hydrochloride; • 3: 2-[(6-phenyl-2,3,4,9-tetrahydro-1H-carbazol-1-yl)amino] ethanol; • 4: 1-(3,6-dichloro-9H-carbazol-9-yl)-3-(2-methyl-1H-imidazol-1-yl)-2-propanol; • 5: N-[2-(4-fluorophenyl)ethyl]-N′-(4-nitrophenyl) thiourea; • 6: N-(4-chlorobenzyl)-N′-4-pyridinylthiourea; • 7: N′-(3,5-dichloro-2-hydroxybenzylidene)-2-oxo-4-phenyl-3-pyrrolidinecarbohydrazide; and • 8: [(5-nitro-3-phenyl-1H-indol-2-yl)methyl]amine hydrochloride (NPIMA, structure shown in inset).
To identify compounds that kill E. coli persister cells, 10,000 compounds of the DIVERset Library from ChemBridge (San Diego, CA) were tested by adding 4 μl of each (in DMSO, final concentration 100 μM) to 186 μl of LB in 96-well plates along with 10 μl of persister cells; the persister cells were added after the ChemBridge chemical since LB wakes persister cells (Kim, Yamasaki, et al., 2018). For the negative control, pure DMSO (final concentration 2 vol %) was used. The degree of inhibition was determined by the change in turbidity at 600 nm after 24 hr. The best 26 compounds were re-tested with the same conditions.
To screen directly for killing persister cells, a high-throughput approach using 96-well microtiter plates was devised that consisted of (a) washing persister cells formed from exponentially-growing cells using rifampicin pretreatment followed by ampicillin treatment, (b) adding 10 μl of the persister cells to 190 μl of LB containing one each of the 10,000 compounds of the DiverSet library dissolved in dimethyl sulfoxide (100 μM final concentration), and (c) monitoring for growth via change in turbidity for 24 hr. With this approach, we allowed for up to a 140-fold change in turbidity (0.005 could be increased to 0.69).

E. coli persister cells [2] = test: Re-test of resuscitation hits in minimal alanine medium, 96-well plates; format: cell-based, Escherichia coli; details: 100 μM
Method: ChemBridge screen to identify resuscitation compounds. To identify compounds that resuscitate E. coli persister cells, the DIVERset Library from ChemBridge (San Diego, CA) containing 10,000 druglike compounds with high pharmacophore diversity was evaluated by adding 4 μL of each compound (final concentration 100 μM, dissolved in DMSO) to 186 μL of LB in 96 well plates and then adding 10 μL of persister cells. The negative control was 2 vol % DMSO. Resuscitation was calculated as the change in turbidity at 600 nm. The compounds that were identified initially were re-tested in M9 minimal medium with 5× alanine (24).

[3] = tested on: E. coli BW25113 persister cells; test: Single-cell persister resuscitation; format: cell-based, Escherichia coli; details: 100 μM, M9 alanine (5×) agarose gel pads, 6 h
Text: FIG. 12. RluD increases persister resuscitation by increasing ribosomes for resuscitation. (A) Single-cell persister resuscitation as determined using light microscopy (Zeiss Axio Scope.A1). The fold-change in resuscitation is relative to BW25113 with DMSO for BW25113 with BPOET, relative to BW25113 for the ΔrluD mutant, relative to BW25113/pCA24N for the strain producing RluD from pCA24N plasmid in BW25113, and relative to MG1655 for ΔrybB. M9 glucose (0.4%) agarose gel pads were used for all the strains except BW25113 with BPOET where M9 alanine (5×) agarose gel pads including 100 μM of BPOET or DMSO were used. The results are the combined observations from two independent experiments after 6 h for the BW25113 with BPOET, after 4 h for BW25113 and its deletion mutants, and after 6 h for cells harboring pCA24N and its derivatives as well as for MG1655 and MG1655 ΔrybB. Error bars indicate standard deviations. (B) Active 70S ribosomes in single persister cells for MG1655-ASV/pCA24N-rluD (“RluD”) VS. MG1655-ASV/pCA24N (“Empty”). Cells are shown on agarose gel pads at time 0 for resuscitation; i.e., after the formation of persister cells. Representative results from three independent cultures are shown.
Single-cell persister resuscitation. As described previously (19), 5 μL of cell populations consisting of 100% persister cells were added to 1.5% agarose gel pads containing either M9 medium with glucose (0.4 wt %) or alanine (5×) as a carbon source (24), and resuscitation was monitored at 37° C. via a light microscope (Zeiss Axio Scope.A1, bl_ph channel at 1000 ms exposure).
Table 5. Single persister cell resuscitation. Single-cell persister resuscitation as determined using light microscopy (Zeiss Axio Scope.A1) using agarose gel pads. The fold-change in resuscitation is relative to BW25113 with DMSO for BW25113 with BPOET, relative to BW25113 for the ΔrluD, relative to BW25113/pCA24N for the strain producing RluD from pCA24N in BW25113, and relative to MG1655 for ΔrybB. […]

E. coli K-12 BW25113 = test: Minimum inhibitory concentration (MIC); format: cell-based; details: Escherichia coli, LB, 24 hr
Method: (§1) The bacteria used in this study are E. coli K-12 BW25113 (Baba et al., 2006), S. aureus ATCC29213, and P. aeruginosa PA14 (Liberati et al., 2006). Lysogeny broth (LB; Bertani, 1951) was used at 37° C. for culturing the bacteria. 2-(Aminomethyl)-indole was obtained from Sigma-Aldrich (catalog number 563838), and 2-methyl-5-nitro-3-phenyl-1H-indole was obtained from ChemBridge (San Diego, CA).
(§2) To determine the MICs of NPIMA and 5-iodoindole for E. coli K-12, S. aureus, and P. aeruginosa PA14, cells were inoculated into LB at varying concentrations and grown for 24 hr. The MIC was determined as the lowest concentration that prevented an increase in growth as evidenced by a lack of change of turbidity.

P. aeruginosa PA14 = test: Minimum inhibitory concentration (MIC); format: cell-based; details: Pseudomonas aeruginosa, LB, 24 hr
Method: as §1, §2

S. aureus ATCC29213 = test: Minimum inhibitory concentration (MIC); format: cell-based; details: Staphylococcus aureus, LB, 24 hr
Method: as §1, §2

[4] = tested on: E. coli BW25113 exponential cells; test: Survival of exponentially-growing cells (drop assay); format: cell-based, Escherichia coli; details: 100 μM, 6 hr
Method: (§3) FIG. 2. NPIMA eradicates Escherichia coli, Pseudomonas aeruginosa, and Staphylococcus aureus exponential cells. Survival after 6 hr for (a) E. coli BW25113 with NPIMA and 5-iodoindole at 100 μM, (b) P. aeruginosa PA14 with NPIMA and 5-iodoindole at 100 μM, and (c) S. aureus with NPIMA and 5-iodoindole at 200 μM. Asterisk indicates no viable cells detected. NPIMA, 5-nitro-3-phenyl-1H-indol-2-yl-methylamine hydrochloride.
FIG. 8. NPIMA structure function relationships. Exponential cells of Escherichia coli BW25113 were treated with (a) 2-(aminomethyl) indole, and (b) 2-methyl-5-nitro-3-phenyl-1H-indole for 6 hr. NPIMA, 5-nitro-3-phenyl-1Hindol-2-yl-methylamine hydrochloride.
(§4) For bacterial viability, cells were washed twice with 0.85% NaCl, resuspended in 1×PBS, and cell counts were determined via the drop assay (Donegan, Matyac, Seidler, & Porteous, 1991). For human cell viability, pre-cultured human cancer HT-29 cells were dispensed in 98 μl in 96-well plates with approximately 5,000 cells/well. NPIMA was added (2 μl) to produce concentrations of 5, 10, 100, and 200 μM. For controls, Triton X-100 (positive control) and DMSO (negative solvent control), were used, and the medium was used for background. Plates were incubated in a humidified incubator (37° C., 5% CO2) for 24 hr. Cell viability was determined via a cell counting kit (CCK-8 Kit, ab228554; Abcam), and cytotoxicity was determined via the lactate dehydrogenase (LDH) assay (LDH Assay Kit, MK401; Takara).

[5] = tested on: E. coli BW25113 persister cells; test: Survival of persister cells (rifampicin/ampicillin generated); format: cell-based, Escherichia coli; details: 100 μM, 6 hr
Method: FIG. 3. NPIMA kills Escherichia coli, Pseudomonas aeruginosa, persister cells. Survival of (a) E. coli BW25113 and (b) P. aeruginosa PA14 after treatment with NPIMA (100 μM), 5-iodoindole (5-II, 100 μM), and DMSO for 6 hr. Asterisk indicates no viable cells detected. DMSO, dimethyl sulfoxide; NPIMA, 5-nitro-3-phenyl-1H-indol-2-yl-methylamine hydrochloride.
E. coli persister cells were prepared following our previous method (Kim, Yamasaki, et al., 2018; Kwan, Valenta, Benedik, & Wood, 2013). Exponentially-growing cells (turbidity of 0.8 at 600 nm) were treated with rifampicin (100 μg/ml for 30 min) to stop transcription, washed, and any remaining nonpersister cells were lysed by ampicillin in LB (100 μg/ml for 3 hr). Cells were harvested by centrifugation (17,000 g for 1 min) and washed with 1× phosphate-buffered saline buffer (PBS, 8 g NaCl, 0.2 g KCl, 1.15 g Na2HPO4, and 0.2 g KH2PO4 per 1,000 ml) twice to remove all possible carbon sources, then resuspended with 1×PBS. Natural E. coli persister cells were generated by treating stationary-phase cells (turbidity of 6 at 600 nm) with ampicillin (100 μg/ml) for 3 hr. P. aeruginosa PA14 persister cells were prepared by incubating to the stationary phase, diluting sixfold, and treating with carbonyl cyanide m-chlorophenylhydrazone (CCCP, 50 mg/ml stock solution in dimethly sulfoxide [DMSO]) to stop adenosine triphosphate (ATP) production (200 μg/ml for 3 hr), washed twice with 0.85% NaCl (5,000 g for 10 min), and any nonpersister cells were killed by ciprofloxacin (5 μg/ml) in LB for 3 hr. Following the antibiotic treatment, bacteria were washed twice with 0.85% NaCl (5,000 g for 10 min).
For bacterial viability, cells were washed twice with 0.85% NaCl, resuspended in 1×PBS, and cell counts were determined via the drop assay (Donegan, Matyac, Seidler, & Porteous, 1991). […] Cell viability was determined via a cell counting kit (CCK-8 Kit, ab228554; Abcam), and cytotoxicity was determined via the lactate dehydrogenase (LDH) assay (LDH Assay Kit, MK401; Takara).

[6] = tested on: P. aeruginosa PA14 exponential cells; test: Survival of exponentially-growing cells (drop assay); format: cell-based, Pseudomonas aeruginosa; details: 100 μM
Method: as §3, §4

S. aureus cells = test: Survival of cells (drop assay); format: cell-based, Staphylococcus aureus; details: 200 μM
Method: as §3, §4

E. coli persister cells [7] = details: 1 mM; Lee et al., 2016; cited from earlier work

In the case of `S=C(NCc1ccc(Cl)cc1)Nc1ccncc1` [compound 6, N-(4-chlorobenzyl)-N′-4-pyridinylthiourea], the “persister killing, second screen (FIG. 1)” value (shortened to “persister killing”) (E. coli persister cells [1]) is reported as “Most effective”.
In the case of `OCCNC1CCCc2c1[nH]c1ccc(-c3ccccc3)cc21` (centres unmarked) [compound 3, 2-[(6-phenyl-2,3,4,9-tetrahydro-1H-carbazol-1-yl)amino] ethanol], the “persister killing” value (E. coli persister cells [1]) is reported as “Most effective”.
For `Cc1nccn1CC(O)Cn1c2ccc(Cl)cc2c2cc(Cl)ccc21` (centres unmarked) [compound 4, 1-(3,6-dichloro-9H-carbazol-9-yl)-3-(2-methyl-1H-imidazol-1-yl)-2-propanol], the “persister killing” value (E. coli persister cells [1]) was “Most effective”.
For `CCn1c(SCC(=O)c2ccc(Br)cc2)nc2sc3c(c2c1=O)CCCC3` [BPOET, 2-{[2-(4-bromophenyl)-2-oxoethyl]thio}-3-ethyl-5,6,7,8-tetrahydro[1]benzothieno[2,3-d]pyrimidin-4(3H)-one], the “increase in persister cell waking based on turbidity” value (E. coli persister cells [2]) was 44 fold, the “% waking” value [3] was 20 ± 13% and the “Fold-change in resuscitation relative to BW25113 with DMSO” value [3] was 4 fold and 4 ± 3 fold. For the same compound, the Waking cells [3] was 38 ± 18.
For `O=C1NCC(c2ccccc2)C1C(=O)N/N=C\c1cc(Cl)cc(Cl)c1O` (centres unmarked) [compound 7, N′-(3,5-dichloro-2-hydroxybenzylidene)-2-oxo-4-phenyl-3-pyrrolidinecarbohydrazide], the “persister killing” value (E. coli persister cells [1]) was “Most effective”.
Work on `Ic1ccc2[nH]ccc2c1` [5-iodoindole, reference compound] yielded an MIC (E. coli K-12 BW25113) of 2000 µM (≈ 486 µg/mL), an MIC (P. aeruginosa PA14) of 2000 µM (≈ 486 µg/mL) and an MIC (S. aureus ATCC29213) of 2000 µM (≈ 486 µg/mL). The “killing of exponential E. coli cells” value [4] was “much less effective”, the “killing of E. coli persister cells” value [5] was “much less effective” and the “killing of P. aeruginosa” value [6] was “ineffective”. The “killing of S. aureus” value (S. aureus cells) was “ineffective” and the persisters killed (E. coli persister cells [7]) was 99.993%.
In the case of `Cl.OCCNc1nc(Nc2ccc(Br)cc2)nc2ccccc12` [compound 2, 2-({2-[(4-bromophenyl)amino]-4-quinazolinyl}amino)ethanol hydrochloride], the “persister killing” value (E. coli persister cells [1]) is reported as “Most effective”.
For `Cc1[nH]c2ccc([N+](=O)[O-])cc2c1-c1ccccc1` [2-methyl-5-nitro-3-phenyl-1H-indole], the “killing of exponential E. coli cells” value [4] was “unable to kill E. coli”.
In the case of `Fc1cccc(NC(=S)Nc2ccc(Cl)c(Cl)c2)c1` [compound 1, N-(3,4-dichlorophenyl)-N′-(3-fluorophenyl) thiourea], the “persister killing” value (E. coli persister cells [1]) is reported as “Most effective”.
With `NCc1cc2ccccc2[nH]1` [2-(aminomethyl)-indole] the “killing of exponential E. coli cells” value [4] was “unable to kill E. coli”.
